Measured values: US7247649B2, “Oxazoles, their manufacture and use as pharmaceutical agents” (Hoffmann-La Roche Inc., priority 2003, dated 2007)

Experiments:
[1] = tested on: A549 cells (human lung carcinoma cell line); assay: A549 MTT cell proliferation assay (HER-signalling pathway inhibitors); format: cell-based; conditions: for IC50: Homo sapiens, A549 cells, 5 days (120 h) incubation, MTT readout at 550 nm, 3 μM to 0.15 nM; for activity (in words): reference compound in the A549 biological assay
Method: A549 cells (human lung carcinoma cell line) were cultivated in RPMI 1640, 2.5% FCS, 2 mM Glutamine, 100 u/ml Penicillin, 100 μg/ml Streptomycin. For the assay the cells were seeded in 384 well plates, 900 cells per well, in the same medium. The next day compounds (dissolved 10 mM in DMSO) were added in various concentrations ranging from 3 μM to 0.15 nM (10 concentrations, 1:3 diluted). After 5 days the MTT assay was done mainly according to the instructions of the manufacturer (Cell proliferation kit I, MTT, from Roche Molecular Biochemicals). In brief: MTT labeling reagent was added to a final concentration of 0.5 mg/ml, added and incubated for 4 hrs at 37 C, 5% CO2. During this incubation time purple formazan crystals are formed. After addition of the solubilization solution (20% SDS in 0.02 M HCl) the plates were incubated overnight at 37° C., 5% CO2. After careful mixing plates were measured in Victor 2 (scanning multiwell spectrophotometer, Wallac) at 550 nm.
A decrease in number of living cells results in a decrease in the total metabolic activity in the sample. The decrease directly correlates to the amount of purple color resulting from the solubilization of the purple formazan crystals.
A549: 900 cells in 60 μl per well of 384 well plate (Greiner)
Medium: RPMI 1640, 2.5% FCS, glutamine, pen/strep.
Induction: • Dilution of compound in DMSO: 3 μl 10 mM+27 μl DMSO, dilute 1:3 • Add 2 μl of compound dilution row to 95 ul of medium • Add 10 μl of compound dilution to 60 μl medium in test plate→0.3% DMSO per well • Incubate 120 h (5 days) at 37° C., 5% CO2
Analysis: • Add 7 μl MTT (5 mg 7 ml/well), incubate 4 h at 37° C. • Add 30 μl lysis buffer (20% SDS, 0.04 N HCl) per well • Incubate overnight at 37° C.
Measurement: • Victor 2, 550 nm • Determination of IC50 was done using XL-fit.

Structure (SMILES) | IC50 [1] | activity (in words) [1] | melting point
Clc1ccc(/C=C/c2nc(COc3ccc(CCCCn4ccnn4)cc3)co2)cc1Cl [Example 5, 1-[4-(4-{2-[2-(E)-(3,4-Dichloro-phenyl)-vinyl]-oxazol-4-ylmethoxy}-phenyl)-butyl]-1H-[1,2,3]triazole] | 900 nM | do not have reasonable activity | –
Fc1cc(C(F)(F)F)ccc1/C=C/c1nc(COc2ccc(CCCCn3ccnn3)cc2)co1 [Example 3, 1-[4-(4-{2-[2-(E)-(2-Fluoro-4-trifluoromethyl-phenyl)-vinyl]-oxazol-4-ylmethoxy}-phenyl)-butyl]-1H-[1,2,3]triazole] | 2 nM | – | –
FC(F)(F)c1ccc(C=Cc2nc(COc3ccc(CCCCn4ccnn4)cc3)co2)cc1 [reference, 1-[4-(4-{2-[2-(4-trifluoromethyl-phenyl)-vinyl]-oxazol-4-ylmethoxy}-phenyl)-butyl]-1H-[1,2,3]triazole, reference compound] | 7 nM | less activity than the compounds of the present invention | –
Fc1cc(Cl)ccc1/C=C/c1nc(COc2ccc(CCCCn3ccnn3)cc2)co1 [Example 2, 1-[4-(4-{2-[2-(E)-(4-Chloro-2-fluoro-phenyl)-vinyl]-oxazol-4-ylmethoxy}-phenyl)-butyl]-1H-[1,2,3]triazole] | < 5 nM | – | –
Fc1cc(/C=C/c2nc(COc3ccc(CCCCn4ccnn4)cc3)co2)ccc1Cl [Example 1, 1-[4-(4-{2-[2-(E)-(4-Chloro-3-fluoro-phenyl)-vinyl]-oxazol-4-ylmethoxy}-phenyl)-butyl]1H-[1,2,3]triazole] | 460 nM | do not have reasonable activity | 146 to 149 °C
FC(F)(F)c1cccc(/C=C/c2nc(COc3ccc(CCCCn4ccnn4)cc3)co2)c1 [Example 4, 1-[4(4-{2-[2-(E)-(3-Trifluoromethyl-phenyl)-vinyl]-oxazol-4-ylmethoxy}-phenyl)-butyl]-1H-[1,2,3]triazole] | 3550 nM | inactive | –
